Tests used:
Trypanosoma cruzi [1] = experiment: GSK_TCAKS: pIC50 Trypanosoma cruzi viability assay using beta-GAL activity. This assay was run at single shot at 5uM compound concentration per well. The biological reagents consisted of NIH-3T3 host cells and trypomastigotes parasitic cells; both cell types were set to a 3.3 * 10^5 cells/mL dilution in assay DMEM by means of a CASY cell counter device using a 60um capillary. 6 uL of the mixture were dispensed per well (about 1 * 10^3 host-cells and 1 * 10^3 parasites) with a Multidrop Combi dispenser. […] In all wells, the percentage of DMSO never exceeded 0.5%. Plates incubated for four days at 37C, 5% CO2. The substrate used for the assay fluorescence intensity (FLINT) readout was resorufin-beta-D-galactopiranoside (Sigma-Aldrich) at 5uM per well. It was diluted in PBS supplemented with the soft detergent Igepal (Fluka).; type: functional, organism-based, Mus musculus; conditions: Tulahuen, NIH3T3
Trypanosoma cruzi [2] = experiment: (§1) GSK_TCAKS: pIC50 Trypanosoma cruzi Imaging: Infected Cells. […] Cells were then washed once with PBS before infection. T. cruzi trypomastigotes, collected at days 5 to 8 after infection from LLC-MK2 parasite infected cultures, were allowed to swim out for 4h at 37C from a centrifuged pellet (2,500 rpm/10 min/room temperature). Trypomastigotes were then collected and counted in a CASY Cell Counter. Trypomastigotes, in supplemented DMEM, were added to H9c2 cultures in a multiplicity of infection of 1 and incubated for 18 h. Cells were washed once with PBS before incubation of the infected H9c2 monolayer with trypsin (Life-Technologies) to detach cells from the flask. Cells were counted in a CASY Cell Counter using a 150 um capillary and their density set at 5 * 10^4 cells per mL in supplemented assay DMEM. Infected H9c2 were dispensed into 384-well poly-lysine coated assay plates at 50uL per well using a Multidrop Combi dispenser. After seeding them, the plates were incubated at 37C, 5% CO2 for 72h. Cultures were then fixed and stained by addition of 50 uL of a solution containing 8% formaldehyde and 4 uM DRAQ5 DNA dye (BioStatus, UK) per well. […] Five images were collected per well for reliable statistical analysis. Automated image analysis was performed with a script developed on Acapella High Content Imaging and Analysis Software (PerkinElmer). Output: percentage of infected cells per well as a second infection marker.; type: functional, organism-based, Rattus norvegicus; conditions: H9c2, 4 h
Trypanosoma cruzi [3] = experiment: GSK_TCAKS: pIC50 Trypanosoma cruzi Imaging: Amastigotes/Cell. […] Cells were then washed once with PBS before infection. T. cruzi trypomastigotes, collected at days 5 to 8 after infection from LLC-MK2 parasite infected cultures, were allowed to swim out for 4h at 37C from a centrifuged pellet (2,500 rpm/10 min/room temperature). Trypomastigotes were then collected and counted in a CASY Cell Counter. Trypomastigotes, in supplemented DMEM, were added to H9c2 cultures in a multiplicity of infection of 1 and incubated for 18 h. Cells were washed once with PBS before incubation of the infected H9c2 monolayer with trypsin (Life-Technologies) to detach cells from the flask. Cells were counted in a CASY Cell Counter using a 150 um capillary and their density set at 5 * 10^4 cells per mL in supplemented assay DMEM. Infected H9c2 were dispensed into 384-well poly-lysine coated assay plates at 50uL per well using a Multidrop Combi dispenser. After seeding them, the plates were incubated at 37C, 5% CO2 for 72h. Cultures were then fixed and stained by addition of 50 uL of a solution containing 8% formaldehyde and 4 uM DRAQ5 DNA dye (BioStatus, UK) per well. […] Five images were collected per well for reliable statistical analysis. Automated image analysis was performed with a script developed on Acapella High Content Imaging and Analysis Software (PerkinElmer). Output: number of amastigotes per cell as infection level measurement.; type: functional, organism-based, Rattus norvegicus; conditions: H9c2, 4 h
Trypanosoma cruzi [4] = experiment: as §1, with “H2C9” for “Trypanosoma cruzi”, “H9c2 Host Cardiomyocytes.” for “Infected Cells.”, “Number” for “percentage”, “H9c2 Host Cardiomyocytes nuclei to determine drug-related cytotoxicity.” for “infected cells per well as a second infection marker.”; type: functional, organism-based, Rattus norvegicus; conditions: H9c2, 4 h
Leishmania donovani [5] = experiment: GSK_TCAKS: pIC50 Leishmania donovani viability assay using fluorescence intensity. Assay plates (1536-well) were prepared by adding 30nL per well of compound. For single shot assay, the final compound concentration was 5uM. […] Briefly, eGFP LdBOB axenic amastigotes were harvested, fixed and counted in a CASY cell counter (Roche-Applied Science). A final concentration of 1.5 * 10^5 cells per well were prepared in amastigote media containing 500 U/mL penicillin/streptomycin (Invitrogen) and 6uL was dispensed to each experimental well using a Multidrop Combi dispenser (Thermo Scientific). 6uL of assay media was dispensed to control columns used as reference for 100% compound response. Following incubation for 72 h at 37C, 5% CO2, 2 uL of resazurin was added to each well at a final concentration of 0.5 mM in phosphate buffered saline (PBS) with IGEPAL (Sigma-Aldrich), 0.05% (v/v).; type: functional, organism-based
Leishmania donovani [6] = experiment: GSK_TCAKS: pIC50 Leishmania donovani Imaging: Infected Macrophages. Assay plates (384-well) were prepared by adding 250nL of compound to each well. For single shot assay, the final compound concentration was 5 uM. […] Automated image analysis was performed with a script developed on Acapella High Content Imaging and Analysis Software (PerkinElmer). Output: Percent of infected macrophage cells were reported for each well.; type: functional, organism-based, Homo sapiens; conditions: THP-1
Leishmania donovani [7] = experiment: GSK_TCAKS: pIC50 Leishmania donovani Imaging: Amastigotes/Macrophages. Assay plates (384-well) were prepared by adding 250nL of compound to each well. For single shot assay, the final compound concentration was 5 uM. […] Automated image analysis was performed with a script developed on Acapella High Content Imaging and Analysis Software (PerkinElmer). Output: Average number of amastigotes per macrophage cell were reported for each well.; type: functional, organism-based, Homo sapiens; conditions: THP-1
Leishmania donovani [8] = experiment: GSK_TCAKS: pIC50 Leishmania donovani Imaging: THP-1 Host Macrophages. Assay plates (384-well) were prepared by adding 250nL of compound to each well. For single shot assay, the final compound concentration was 5 uM. […] Automated image analysis was performed with a script developed on Acapella High Content Imaging and Analysis Software (PerkinElmer). Output: THP-1 cell count were reported for each well.; type: functional, organism-based, Homo sapiens
[9] = test system: Trypanosoma brucei brucei; experiment: GSK_TCAKS: pIC50 Trypanosoma brucei viability assay using fluorescence intensity. Assay plates (1536-well) were prepared by dispensing 25nL of compound solution per well using an Echo acoustic dispenser (Labcyte).; type: functional, organism-based; conditions: Lister 427, 2 h
[10] = test system: Trypanosoma brucei brucei; experiment: GSK_TCAKS: pIC50 Trypanosoma brucei viability assay using luminiscence. Assay plates (1536-well) were prepared. T. brucei cultures were harvested and counted in a CASY cell counter. A parasite suspension was prepared at a final concentration of 5 * 10^4 cells/mL in complete HMI9 medium and 6uL was dispensed to all wells containing compounds using a Multidrop Combi dispenser. 6uL of HMI9 media with 0.4% DMSO were dispensed to control columns. Plates were incubated for 24 h at 37C, 5% CO2 then tempered for 10 min at room temperature. ATP content was quantified by adding 4 uL of CellTiter-Glo Reagent (Promega) according to the manufacturer's instructions. Luminescence was measured using a ViewLux.; type: functional, organism-based; conditions: Lister 427, CASY
[11] = GSK_TCAKS: pIC50 HepG2 human cell line viability assay using luminiscence. […] Seeding density was checked to ensure that new mono-layers were not more than 50% confluent at the time of harvesting. Cell suspension was added to 500 mL of the same medium at a final density of 1.2 * 10^5 cells/mL. This cell suspension was dispensed (25 uL, 3000 cells per well) into 384-well clear-bottom plates using a Multidrop Combi dispenser. Prior to addition of the cell suspension, the screening compounds (250 nL) were pre-dispensed into the plates with an Echo liquid handler. Plates were incubated for 48 h at 37C, 5% CO2. After incubation, plates equilibrated at room temperature for 30 min before proceeding to develop the luminescent signal. The signal developer, CellTiter-Glo Reagent, was allowed to equilibrate at room temperature for 30 min and added to the plates (25uL per well) using a Multidrop Combi dispenser. Plates were left for 10 min at room temperature for stabilization and then read using a ViewLux.; type: toxicity, cell-based
NIH3T3 = experiment: GSK_TCAKS: pIC50 NIH 3T3 cell line viability assay using luminiscence. Tissue culture surface treated assay plates (1536-well) were used. […] The 100% cells survival control was determined exposing the host-cells to a 0.5% DMSO concentration, whereas the 100% toxicity control was achieved by seeding the cells in presence of Amphotericin B at 50uM. Plates were incubated for four days at 37C, 5% CO2. The assay readout was developed by addition of 5uL of CellTiter-Glo Reagent following the manufacturer's instructions. Luminiscence was measured using a ViewLux.; type: functional, cell-based; conditions: Mus musculus, NIH3T3, 96 h
[12] = biological target: Sterol 14-alpha demethylase (Trypanosoma cruzi (strain CL Brener), UniProt Q7Z1V1); experiment: GSK_TCAKS: pIC50 CYP51 from Trypanosoma cruzi.; type: functional
Chain of Sterol 14-alpha demethylase (Q7Z1V1 whole entry): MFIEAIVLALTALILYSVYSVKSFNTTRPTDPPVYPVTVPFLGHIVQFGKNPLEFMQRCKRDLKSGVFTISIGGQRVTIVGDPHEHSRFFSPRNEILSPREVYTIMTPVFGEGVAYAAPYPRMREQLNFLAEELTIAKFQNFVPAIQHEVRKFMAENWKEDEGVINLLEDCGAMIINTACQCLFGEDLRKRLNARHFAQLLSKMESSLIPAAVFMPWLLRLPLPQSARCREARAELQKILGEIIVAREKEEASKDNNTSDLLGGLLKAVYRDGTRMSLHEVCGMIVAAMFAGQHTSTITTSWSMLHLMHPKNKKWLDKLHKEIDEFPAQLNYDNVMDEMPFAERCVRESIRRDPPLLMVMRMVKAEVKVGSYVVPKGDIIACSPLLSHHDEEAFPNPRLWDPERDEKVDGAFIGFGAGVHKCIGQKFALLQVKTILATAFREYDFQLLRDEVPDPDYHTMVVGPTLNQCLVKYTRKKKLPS

Compound | IC50 (Trypanosoma cruzi [1]) [µM] | IC50 (Trypanosoma cruzi [2]) [µM] | IC50 (Trypanosoma cruzi [3]) [µM] | IC50 (Trypanosoma cruzi [4]) [µM] | IC50 (Leishmania donovani [5]) [µM] | IC50 (Leishmania donovani [6]) [µM] | IC50 (Leishmania donovani [7]) [µM] | IC50 (Leishmania donovani [8]) [µM] | IC50 [9] [µM] | IC50 [10] [µM] | IC50 at 48 h [11] [µM] | IC50 (NIH3T3) [µM] | IC50 [12] [µM]
O=C(NCc1ccncc1)c1ccccc1N1CCCN(C(=O)Cc2ccc(F)c(F)c2)CC1 | 0.126 | 0.0794 | 0.0794 | > 50.1 | 2.51 | > 50.1 | > 50.1 | > 50.1 | 6.31 | 20 | > 100 | 15.8 | 0.0794
COc1ccc(C(C)N(C)c2ncc3c(N)nc(N)nc3n2)cc1F (stereo not given) | 0.0794 | 0.2 | 0.0631 | 25.1 | 3.98 | 15.8 | 12.6 | > 50.1 | 12.6 | 5.01 | > 100 | 39.8 | > 100
O=c1ccc2ccc(F)c3c2n1C[C@H]3CN1CCC(NCc2cc3ccccc3o2)CC1 | 0.398 | 0.2 | 0.126 | 31.6 | 15.8 | 20 | 12.6 | 31.6 | 0.631 | 2 | 39.8 | 20 | 31.6
CS(=O)(=O)N[C@H]1CC[C@@H](Oc2cc3cnccc3cc2-c2ccsc2)CC1 | 0.126 | 0.158 | 0.1 | > 50.1 | 31.6 | 50.1 | 20 | 15.8 | 15.8 | > 39.8 | 63.1 | 15.8 | 0.0251
Cc1c(C(=O)NCCCCn2ccnc2)oc2c(C)cccc12 | 0.224 | 0.501 | 0.501 | > 50.1 | > 50.1 | > 50.1 | > 50.1 | > 50.1 | 20 | > 39.8 | 79.4 | 31.6 | 0.1
Cc1ccc2ccc(C(Nc3ccccn3)c3cccnc3)c(O)c2n1 (stereo not given) | 0.501 | 0.2 | 0.2 | 31.6 | 0.398 | 12.6 | 7.94 | > 50.1 | 5.01 | 3.98 | 20 | 10 | 0.0501
COc1ccccc1C=CCN1C[C@H]2CCC[C@@H](C1)C2(O)c1cccnc1 (stereo not given in full) | 0.0501 | 0.0398 | 0.0398 | > 50.1 | > 50.1 | > 50.1 | 31.6 | 39.8 | > 39.8 | > 39.8 | > 100 | 31.6 | 0.126
COc1ccc(C(=O)Nc2cc(C(F)(F)F)ccc2N2CCOCC2)c(OC)c1 | 1 | 0.794 | 0.316 | > 50.1 | 5.01 | 10 | 7.94 | 12.6 | 10 | 25.1 | > 100 | 31.6 | > 100
COc1ccc(NS(=O)(=O)c2cc(NC(=O)Cc3ccc(C)cc3)ccc2N2CCOCC2)cc1 | 2 | 5.01 | 2.51 | > 50.1 | 39.8 | > 50.1 | > 50.1 | > 50.1 | 5.01 | 7.94 | > 100 | 25.1 | > 100
NC(=O)c1ccccc1Nc1nc(NC2CCCCC2)nc2[nH]ccc12 | 1 | 1 | 1 | 25.1 | 20 | 12.6 | 12.6 | 10 | 0.501 | 10 | 20 | 25.1 | > 100

From ChEMBL document CHEMBL3430912, “GSK Tres Cantos Anti-Kinetoplastid Screening (TCAKS) Data”
